Data: patent US20200024278A1, “COMPOSITION COMPRISING ANTIBIOTIC COMPOUND AND AN HETEROCYCLIC COMPOUND AND THEIR USE IN PREVENTING OR TREATING BACTERIAL INFECTIONS” (MUTABILIS, priority 2016, published 2020)

Assays:
Assay in all cases: MIC, broth microdilution (CLSI), substance alone or ATB combined with compound at 4 or 8 μg/mL
[1] = system: PAE UFR90; assay type: cell-based, P. aeruginosa; settings: PAE UFR90; for MIC ATB combined with compound / MIC ATB combined with Example compound: compound @4 μg/ml
Method in brief: (§1)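 CLSI broth microdilution in cation-adjusted Mueller-Hinton broth, 5·10^5 CFU/mL log-phase inoculum, 16-20 h at 35 °C in ambient air. Fosfomycin assays supplemented with 25 μg/ml glucose-6-phosphate.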

[2] = system: PAE 105250; assay type: cell-based, P. aeruginosa; settings: PAE 105250; for MIC ATB combined with compound / MIC ATB combined with Example compound: compound @4 μg/ml
Method in brief: as §1

[3] = system: PAE UFR48; assay type: cell-based, P. aeruginosa; settings: PAE UFR48; for MIC ATB combined with compound / MIC ATB combined with Example compound: compound @4 μg/ml
Method in brief: as §1

[4] = system: ABA UFR151; assay type: cell-based, A. baumannii; settings: Acinetobacter baumannii, substance alone, read-out: MIC
Method in brief: as §1

[5] = system: ABA UFR160; assay type: cell-based, A. baumannii; settings: Acinetobacter baumannii, substance alone, read-out: MIC
Method in brief: as §1

[6] = system: ECL P99; assay type: cell-based, E. cloacae; settings: ECL P99
Method in brief: as §1

[7] = system: SPN 49619; assay type: cell-based, S. pneumoniae; settings: SPN 49619; for MIC ATB combined with compound / MIC ATB combined with Example compound: compound @4 μg/ml
Method in brief: as §1

[8] = system: KPN BAA-1898; assay type: cell-based, K. pneumoniae; settings: KPN BAA-1898
Method in brief: as §1

[9] = system: KPN UFR42; assay type: cell-based, K. pneumoniae; settings: KPN UFR42; for MIC ATB combined with Example compound: compound @4 μg/ml
Method in brief: as §1

[10] = system: KPN 6299; assay type: cell-based, K. pneumoniae; settings: MIC of CIP, compound @4 μg/ml
Method in brief: as §1

[11] = system: ECO 190317; assay type: cell-based, E. coli; settings: ECO 190317
Method in brief: as §1

[12] = system: ECO UFR39; assay type: cell-based, E. coli; settings: ECO UFR39; for MIC ATB combined with Example compound: compound @4 μg/ml
Method in brief: as §1

[13] = system: SAU 29213; assay type: cell-based, S. aureus; settings: for MIC ATB combined with compound / MIC ATB combined with Example compound: compound @4 μg/ml, SAU 29213
Method in brief: as §1

[14] = Pseudomonas aeruginosa, substance alone, read-out: MIC
[15] = Escherichia coli, substance alone, read-out: MIC

O=C1N2CC(c3ncco3)=C[C@H](C2)N1OS(=O)(=O)[O-].[Na+] [Example 9, sodium [(5R)-3-(oxazol-2-yl)-7-oxo-1,6-diazabicyclo[3.2.1]oct-3-en-6-yl] sulfate]
MIC ATB combined with compound ([1]; ATB ATM): 128 µg/mL
MIC ATB combined with compound ([1]; ATB FEP): 4 µg/mL
MIC ATB combined with compound ([1]; ATB FOS): 4 µg/mL
MIC ATB combined with compound ([1]; ATB MEM): 1 µg/mL
MIC ATB combined with compound ([1]; ATB PIP): 16 µg/mL
MIC ATB combined with Example compound ([1]; MIC of CIP): 1 µg/mL
MIC ATB combined with Example compound ([1]; MIC of CPO): 8 µg/mL
MIC [1, 14]: > 128 µg/mL
MIC ATB combined with compound ([2]; ATB ATM): 8 µg/mL
MIC ATB combined with compound ([2]; ATB FEP): 8 µg/mL
MIC ATB combined with compound ([2]; ATB FOS): >128 µg/mL
MIC ATB combined with compound ([2]; ATB MEM): 4 µg/mL
MIC ATB combined with compound ([2]; ATB PIP): 32 µg/mL
MIC ATB combined with Example compound ([2]; MIC of CIP): 0.125 µg/mL
MIC ATB combined with Example compound ([2]; MIC of CPO): 32 µg/mL
MIC [2, 14]: > 32 µg/mL
MIC ATB combined with compound ([3]; ATB ATM): 128 µg/mL
MIC ATB combined with compound ([3]; ATB FEP): 32 µg/mL
MIC ATB combined with compound ([3]; ATB FOS): 32 µg/mL
MIC ATB combined with compound ([3]; ATB MEM): 2 µg/mL
MIC ATB combined with compound ([3]; ATB PIP): 32 µg/mL
MIC ATB combined with Example compound ([3]; MIC of CIP): 4 µg/mL
MIC ATB combined with Example compound ([3]; MIC of CPO): >32 µg/mL
MIC [3, 14]: 128 µg/mL
MIC [4]: > 32 µg/mL
MIC [5]: > 32 µg/mL
MIC ([6]; Enterobacter cloacae, substance alone, read-out: MIC): 2 µg/mL
MIC ATB combined with Example compound ([6]; MIC of CIP, compound @4 μg/ml): <0.031 µg/mL
MIC ATB combined with compound ([7]; ATB ATM): <0.031 µg/mL
MIC ATB combined with compound ([7]; ATB FEP): <=0.031 μg/mL
MIC ATB combined with compound ([7]; ATB FOS): 4 µg/mL
MIC ATB combined with compound ([7]; ATB MEM): <=0.031 μg/mL
MIC ATB combined with compound ([7]; ATB PIP): <0.031 µg/mL
MIC ATB combined with Example compound ([7]; MIC of CIP): 0.25 µg/mL
MIC ATB combined with Example compound ([7]; MIC of CLI): 0.0039 µg/mL
MIC ATB combined with Example compound ([7]; MIC of CPO): <=0.031 μg/mL
MIC ATB combined with Example compound ([7]; MIC of DAP): <0.0020 µg/mL
MIC ATB combined with Example compound ([7]; MIC of ERY): <0.0020 µg/mL
MIC ATB combined with Example compound ([7]; MIC of LZD): <=0.0078 μg/mL
MIC ATB combined with Example compound ([7]; MIC of RIF): 0.00024 µg/mL
MIC ATB combined with Example compound ([7]; MIC of SYN): <=0.0020 μg/mL
MIC ATB combined with Example compound ([7]; MIC of VAN): <0.0039 µg/mL
MIC ([7]; Streptococcus pneumoniae, substance alone, read-out: MIC): 8 µg/mL
MIC ([8]; Klebsiella pneumoniae, BAA1898, substance alone, read-out: MIC): 2 µg/mL
MIC ATB combined with Example compound ([8]; MIC of CIP, compound @4 μg/ml): <0.031 µg/mL
MIC ([9]; Klebsiella pneumoniae, substance alone, read-out: MIC): 8 µg/mL
MIC ATB combined with Example compound ([9]; MIC of CIP): <0.031 µg/mL
MIC ATB combined with Example compound ([9]; MIC of CPO): <0.031 µg/mL
MIC ATB combined with Example compound [10]: <=0.031 μg/mL
MIC [11, 15]: 0.5 µg/mL
MIC ATB combined with Example compound ([11]; MIC of CIP, compound @4 μg/ml): <0.031 µg/mL
MIC [12, 15]: 2 µg/mL
MIC ATB combined with Example compound ([12]; MIC of CIP): <0.031 µg/mL
MIC ATB combined with Example compound ([12]; MIC of CPO): <0.031 µg/mL
MIC ATB combined with compound ([13]; ATB ATM): <=0.031 μg/mL
MIC ATB combined with compound ([13]; ATB FEP): <0.031 µg/mL
MIC ATB combined with compound ([13]; ATB FOS): <0.125 µg/mL
MIC ATB combined with compound ([13]; ATB MEM): <0.031 µg/mL
MIC ATB combined with compound ([13]; ATB PIP): <0.031 µg/mL
MIC ATB combined with Example compound ([13]; MIC of CIP): <0.031 µg/mL
MIC ATB combined with Example compound ([13]; MIC of CLI): <0.0010 µg/mL
MIC ATB combined with Example compound ([13]; MIC of CPO): <0.031 µg/mL
MIC ATB combined with Example compound ([13]; MIC of DAP): <0.0020 µg/mL
MIC ATB combined with Example compound ([13]; MIC of ERY): <=0.0020 μg/mL
MIC ATB combined with Example compound ([13]; MIC of LZD): <0.0078 µg/mL
MIC ATB combined with Example compound ([13]; MIC of RIF): 0.002 µg/mL
MIC ATB combined with Example compound ([13]; MIC of SYN): 0.0039 µg/mL
MIC ATB combined with Example compound ([13]; MIC of VAN): <0.0039 µg/mL
MIC ([13]; Staphylococcus aureus, substance alone, SAU 29213 (MSSA 29213), read-out: MIC): 8 µg/mL
